{
  "source": "patent US9718819B2",
  "about": "(Merck Sharp & Dohme Corp., priority 2012, dated 2017)",
  "key": {"[1]": {"molecular_target": "HIV-1 RT wild-type enzyme (Human immunodeficiency virus type 1 group M subtype B (isolate HXB2) (HIV-1), UniProt P04585)", "test": "HIV-1 reverse transcriptase inhibitory activity (RT polymerase assay)", "assay_type": "biochemical", "details": "HIV-1 RT wild-type enzyme 83 pM; RNA-dependent DNA polymerase activity; read-out: IC50", "summary_of_the_method": "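Biotinylated DNA primer annealed to HCV-derived RNA template (16.6 nM final hybrid), with 2 μM dATP/dGTP/dCTP and 66.6 nM Ru-dUTP, after 30 min compound–enzyme preincubation at room temperature; polymerization 90 min at 37 °C, EDTA quench. Product captured on avidin plates, electrochemiluminescence read; IC50 by four-parameter logistic fit versus DMSO and 1 μM efavirenz controls.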"}, "[2]": {"test": "Determination of PK parameters in dog after intravenous bolus", "assay_type": "in vivo, Male beagle dogs", "details": "male beagle dog, plasma, 50% DMSO in PEG400, read-out: Dog t1/2 (terminal half-life) (converted)", "procedure": "Determination of PK Parameters Male beagle dogs (weight 9-13 kg) were fasted overnight and housed individually. Water was provided ad lib throughout the study. Food was allowed approximately 4 hr post dose. […] The formulations were given intravenous as a bolus injection into the cephalic vein. The vein used for the dosing will not be used for the blood sample collection for the first 4 hr post-dose). […] EDTA was used as anticoagulant and approximately 0.5 mL aliquots of blood samples were collected at each time point. […] Test compound concentration in dog plasma was determined using a LC/MS/MS method. Typically the LC/MS/MS system consisted of an ACQUITY UPLC system with autosampler system refrigerated at 4° C. during analysis, and an API 4000 mass spectrometer. […] The mobile phase consisting of a solvent A (0.1% formic acid in water/acetonitrile (95/5)) and solvent B (0.1% formic acid in acetonitrile/water (95/5)) was delivered at a flow rate of 600 μL/min. […] Mass spectrometric detection of the analytes is accomplished using either an ESI or APCI interface operated in the positive or negative ionization mode. Analyte response is measured by multiple reaction monitoring (MRM) of transitions unique to each compound […]"}},
  "note": "pIC50: −log10 of the molar value.",
  "data": [
    {"smiles": "N#Cc1cc(Cl)cc(Oc2c(C(F)(F)F)ncn(Cc3cc(C(F)(F)F)c(=O)[nH]n3)c2=O)c1", "note": "[Example 6, 3-chloro-5-((6-oxo-1-((6-oxo-5-(trifluoromethyl)-1,6-dihydropyridazin-3-yl)methyl)-4-(trifluoromethyl)-1,6-dihydropyrimidin-5-yl)oxy)benzonitrile]", "values": [
      {"measurement": "pIC50", "setting": "[1]", "result": 8.10},
      {"measurement": "half-life", "setting": "[2]", "result": 72, "unit": "h"}
    ]},
    {"smiles": "N#Cc1cc(Cl)cc(Oc2c(C(F)(F)F)ncn(Cc3ccc(=O)[nH]n3)c2=O)c1", "note": "[Example 7, 3-chloro-5-((6-oxo-1-((6-oxo-1,6-dihydropyridazin-3-yl)methyl)-4-(trifluoromethyl)-1,6-dihydropyrimidin-5-yl)oxy)benzonitrile]", "values": [
      {"measurement": "pIC50", "setting": "[1]", "result": 8.10},
      {"measurement": "half-life", "setting": "[2]", "result": 28, "unit": "h"}
    ]},
    {"smiles": "N#Cc1cc(Cl)cc(Oc2c(C(F)(F)F)ncn(Cc3cc(-c4ccc(C#N)c(F)c4)c(=O)[nH]n3)c2=O)c1", "note": "[Example 68, 4-(6-((5-(3-chloro-5-cyanophenoxy)-6-oxo-4-(trifluoromethyl)pyrimidin-1(6H)-yl)methyl)-3-oxo-2,3-dihydropyridazin-4-yl)-2-fluorobenzonitrile]", "values": [
      {"measurement": "pIC50", "setting": "[1]", "result": 8.15},
      {"measurement": "half-life", "setting": "[2]", "result": 25, "unit": "h"}
    ]},
    {"smiles": "N#Cc1cc(Cl)cc(Oc2c(C(F)(F)F)ncn(Cc3cc(-c4ccc(F)cc4)c(=O)[nH]n3)c2=O)c1", "note": "[Example 77, 3-chloro-5-((1-((5-(4-fluorophenyl)-6-oxo-1,6-dihydropyridazin-3-yl)methyl)-6-oxo-4-(trifluoromethyl)-1,6-dihydropyrimidin-5-yl)oxy)benzonitrile]", "values": [
      {"measurement": "pIC50", "setting": "[1]", "result": 8.40},
      {"measurement": "half-life", "setting": "[2]", "result": 79, "unit": "h"}
    ]},
    {"smiles": "CC(F)(F)c1cc(Cn2cnc(C(F)(F)F)c(Oc3cc(Cl)cc(C#N)c3)c2=O)n[nH]c1=O", "note": "[Example 104, 3-chloro-5-((1-((5-(1,1-difluoroethyl)-6-oxo-1,6-dihydropyridazin-3-yl)methyl)-6-oxo-4-(trifluoromethyl)-1,6-dihydropyrimidin-5-yl)oxy)benzonitrile]", "values": [
      {"measurement": "pIC50", "setting": "[1]", "result": 7.82},
      {"measurement": "half-life", "setting": "[2]", "result": 24, "unit": "h"}
    ]},
    {"smiles": "N#Cc1cc(Cl)cc(Oc2c(C(F)(F)F)ncn(Cc3cc(-c4ccccc4)n[nH]c3=O)c2=O)c1", "note": "[Example 110, 3-chloro-5-((6-oxo-1-((3-oxo-6-phenyl-2,3-dihydropyridazin-4-yl)methyl)-4-(trifluoromethyl)-1,6-dihydropyrimidin-5-yl)oxy)benzonitrile]", "values": [
      {"measurement": "pIC50", "setting": "[1]", "result": 8.52},
      {"measurement": "half-life", "setting": "[2]", "result": 20, "unit": "h"}
    ]},
    {"smiles": "CC(F)(F)c1cc(Cn2cnc(C(F)(F)F)c(Oc3cccc(C#N)c3F)c2=O)c(=O)[nH]n1", "note": "[Example 178, 3-((1-((6-(1,1-difluoroethyl)-3-oxo-2,3-dihydropyridazin-4-yl)methyl)-6-oxo-4-(trifluoromethyl)-1,6-dihydropyrimidin-5-yl)oxy)-2-fluorobenzonitrile]", "values": [
      {"measurement": "pIC50", "setting": "[1]", "result": 8.05}
    ]},
    {"smiles": "CC(F)(F)c1cc(Cn2cnc(C(F)F)c(Oc3cc(Cl)cc(C#N)c3)c2=O)c(=O)[nH]n1", "note": "[Example 179, 3-chloro-5-((1-((6-(1,1-difluoroethyl)-3-oxo-2,3-dihydropyridazin-4-yl)methyl)-4-(difluoromethyl)-6-oxo-1,6-dihydropyrimidin-5-yl)oxy)benzonitrile]", "values": [
      {"measurement": "pIC50", "setting": "[1]", "result": 8.10}
    ]},
    {"smiles": "CC(F)(F)c1cc(Cn2cnc(C(C)(F)F)c(Oc3cc(Cl)cc(C#N)c3)c2=O)c(=O)[nH]n1", "note": "[Example 180, 3-chloro-5-((4-(1,1-difluoroethyl)-1-((6-(1,1-difluoroethyl)-3-oxo-2,3-dihydropyridazin-4-yl)methyl)-6-oxo-1,6-dihydropyrimidin-5-yl)oxy)benzonitrile]", "values": [
      {"measurement": "pIC50", "setting": "[1]", "result": 8.30}
    ]},
    {"smiles": "Cc1ncn(Cc2cc(C(C)(F)F)n[nH]c2=O)c(=O)c1Oc1cc(Cl)cc(C#N)c1", "note": "[Example 181, 3-chloro-5-((1-((6-(1,1-difluoroethyl)-3-oxo-2,3-dihydropyridazin-4-yl)methyl)-4-methyl-6-oxo-1,6-dihydropyrimidin-5-yl)oxy)benzonitrile]", "values": [
      {"measurement": "pIC50", "setting": "[1]", "result": 7.92}
    ]},
    {"smiles": "CC(F)(F)c1cc(Cn2cnc(C(C)(F)F)c(Oc3cccc(C#N)c3F)c2=O)c(=O)[nH]n1", "note": "[Example 182, 3-((4-(1,1-difluoroethyl)-1-((6-(1,1-difluoroethyl)-3-oxo-2,3-dihydropyridazin-4-yl)methyl)-6-oxo-1,6-dihydropyrimidin-5-yl)oxy)-2-fluorobenzonitrile]", "values": [
      {"measurement": "pIC50", "setting": "[1]", "result": 8.05}
    ]}
  ]
}
